Results on four substances are retold here after patent US7897582B2, “Oligonucleotide compositions and methods for the modulation of the expression of B7 protein” (Isis Pharmaceuticals, Inc., priority 2003, dated 2011).

For data set [1] the following is noted: mouse, in vivo. How it is done:
Antisense oligonucleotides (ASOs) were dissolved in saline and used to intratracheally dose mice every day, four times per day, from days 15-26 of the OVA sensitization and challenge protocol. Specifically, the mice were anesthetized with isofluorane and placed on a board with the front teeth hung from a line. The nose was covered and the animal's tongue was extended with forceps and […] of various doses of ASO, or an equivalent volume of saline (control) was placed at the back of the tongue until inhaled into the lung.

In a further data set the test system is B7-2. Put plainly: B7-2 expression in antigen presenting cells (blood monocytes with IL-4 and GM-CSF), flow cytometry. It is filed as cell-based, human. The settings on record: FIG. 6. How it is done: The ability of ISIS 10373 to inhibit expression from the native B7-2 gene in antigen presenting cells (APCs) was evaluated as follows.
Monocytes were cultured and treated with oligonucleotides as follows. For dendritic cells, EDTA-treated blood was layered onto Polymorphprep™ (1.113 g/mL; Nycomed, Oslo, Norway) and sedimented at 500×g for 30 minutes at 20° C. Mononuclear cells were harvested from the interface. Cells were washed with PBS, with serum-free RPMI media (Moore et al., N.Y. J. Med., 1968, 68, 2054) and then with RPMI containing 5% fetal bovine serum (FBS). Monocytes were selected by adherence to plastic cell culture cell culture dishes for 1 h at 37° C. After adherence, cells were treated with oligonucleotides in serum-free RPMI containing Lipofectin™ (8 μg/mL). After 4 hours, the cells were washed. […] Cells were incubated for 48 hours, after which cell surface expression of various molecules was measured by flow cytometry.
(§1) Mononuclear cells isolated from fresh blood were treated with oligonucleotide in the presence of cationic lipid to promote cellular uptake. […] Expression of B7-2 protein was measured by flow cytometry according to the methods of Example 2. […]
On the technique in general: Flow cytometry measures light scatter and fluorescence of single cells or particles in a stream.

The subject of the next data set is ICAM-1. Put plainly: ICAM-1 expression in antigen presenting cells, flow cytometry. In kind it is cell-based, human. How it is done:
(§2) Monocytes were cultured and treated with oligonucleotides as follows. For dendritic cells, EDTA-treated blood was layered onto Polymorphprep™ (1.113 g/mL; Nycomed, Oslo, Norway) and sedimented at 500×g for 30 minutes at 20° C. Mononuclear cells were harvested from the interface. Cells were washed with PBS, with serum-free RPMI media (Moore et al., N.Y. J. Med., 1968, 68, 2054) and then with RPMI containing 5% fetal bovine serum (FBS). Monocytes were selected by adherence to plastic cell culture cell culture dishes for 1 h at 37° C. After adherence, cells were treated with oligonucleotides in serum-free RPMI containing Lipofectin™ (8 μg/mL). After 4 hours, the cells were washed. Then RPMI containing 5% FBS and oligonucleotide was added to cells along with interleukin-4 (IL-4; R&D Systems, Minneapolis, Minn.) (66 ng/mL) and granulocyte-macrophage colony-stimulating factor (GM-CSF; R&D Systems, Minneapolis, Minn.) (66 ng/mL) to stimulate differentiation (Romani et al., J. Exp. Med., 1994, 180, 83, 1994). Cells were incubated for 48 hours, after which cell surface expression of various molecules was measured by flow cytometry.
as §1

A further data set deals with CD4+ T cells. Description: T cell proliferation assay, [3H]thymidine incorporation, oligonucleotide-treated APCs plus CD4+ T cells. In kind it is cell-based, human. The note with it: APCs treated before cytokine induction; FIG. 7. On the procedure:
The ability of ISIS 2302 and ISIS 10373 to inhibit T cell proliferation was evaluated as follows. Monocytes treated with oligonucleotide and cytokines (as in Example 6) were used as antigen presenting cells in a T cell proliferation assay. The differentiated monocytes were combined with CD4+ T cells from a separate donor. After 48 hours, proliferation was measured by [^3H]thymidine incorporation.
For T cell proliferation assays, cells were isolated from EDTA-treated whole blood as described above, except that a faster migrating band containing the lymphocytes was harvested from just below the interface. Cells were washed as described in Example 6 after which erythrocytes were removed by NH4Cl lysis. T cells were purified using a T cell enrichment column (R&D Systems, Minneapolis, Minn.) essentially according to the manufacturer's directions. CD4+ T cells were further enriched from the entire T cell population by depletion of CD8+ cells with anti-CD8-conjugated magnetic beads (AMAC, Inc., Westbrook, Me.) according to the manufacturer's directions. T cells were determined to be >80% CD4+ by flow cytometry using Cy-chrome-conjugated anti-CD4 mAb (PharMingen, San Diego, Calif.).
Antigen presenting cells (APCs) were isolated as described in Example 6 and treated with mitomycin C (25 μg/mL) for 1 hour then washed 3 times with PBS. APCs (10^5 cells) were then combined with 4×10^4 CD4+ T cells in 350 μL of culture media. Where indicated, purified CD3 mAb was also added at a concentration of 1 μg/mL. During the last 6 hours of the 48 hour incubation period, proliferation was measured by determining uptake of 1.5 μCi of [^3H]-thymidine per well. The cells were harvested onto filters and the radioactivity measured by scintillation counting.

Another data set relates to human B7-2. Description: Cell surface expression of B7-2 in transfected COS-7 cells by flow cytometry. In kind it is cell-based. The gist of the method:
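COS-7 cells transfected with B7-2 plasmid (calcium phosphate), then treated with antisense oligonucleotides with 15 μg/mL Lipofectin for 4 h, followed by oligonucleotide in DMEM/10% FCS. After 24-48 h, cells stained with FITC- or PE-conjugated anti-CD86 for 30 min at 4 °C and analysed by flow cytometry.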

For a further data set, the system named is B7-1. Put plainly: B7-1 cell surface expression in antigen presenting cells, flow cytometry. In kind it is cell-based, human. On the procedure: as §2, §1
A further data set deals with HLA-DR. Put plainly: HLA-DR cell surface expression in antigen presenting cells, flow cytometry. It is filed as cell-based, human. How it is done: as §2, §1
The subject of another data set is CD3. Put plainly: CD3 cell surface expression in antigen presenting cells, flow cytometry. It is filed as cell-based, human. On the procedure: as §2, §1
The next data set relates to human B7-1. Description: Cell surface expression of B7-1 in pcB7-1-transfected COS-7 cells by flow cytometry. It is filed as cell-based. The settings on record: FIG. 5. On the procedure: The ability of oligonucleotides to inhibit B7-1 expression was evaluated by measuring the cell surface expression of B7-1 in transfected COS-7 cells by flow cytometry.
A T-175 flask was seeded at 75% confluency with COS-7 cells (ATCC accession No. CRL 1651). The plasmid pcB7-1 was introduced into cells by standard calcium phosphate transfection. Following a 4 hour transfection, the cells were trypsinized and seeded in 12-well dishes at 80% confluency. The cells were allowed to adhere to the plastic for 1 hour and were then washed with phosphate-buffered saline (PBS). OptiMEM™ (GIBCO-BRL, Gaithersburg, Md.) medium was added along with 15 μg/mL of Lipofectin™ (GIBCO-BRL, Gaithersburg, Md.) and oligonucleotide at the indicated concentrations. After four additional hours, the cells were washed with phosphate buffered saline (PBS) and incubated with fresh oligonucleotide at the same concentration in DMEM (Dulbecco et al., Virol., 1959, 8, 396; Smith et al., Virol., 1960, 12, 185) with 10% fetal calf sera (FCS).
In order to monitor the effects of oligonucleotides on cell surface expression of B7-1, treated COS-7 cells were harvested by brief trypsinization 24-48 hours after oligonucleotide treatment. The cells were washed with PBS, then resuspended in 100 μL of staining buffer (PBS, 0.2% BSA, 0.1% azide) with 5 μL conjugated anti-B7-1-antibody (i.e., anti-hCD80-FITC, Ancell, Bayport, Minn.; FITC: fluorescein isothiocyanate). The cells were stained for 30 minutes at 4° C., washed with PBS, resuspended in 300 μL containing 0.5% paraformaldehyde. Cells were harvested and the fluorescence profiles were determined using a flow cytometer.
B7 antisense oligonucleotides were tested for their effect on cell surface expression of both B7-1 and B7-2. Cell surface expression was measured as described in Example 1. Experiments were done for both human B7 and mouse B7.
The oligonucleotides were screened as described in Example 2 except that the concentration of oligonucleotide was varied as shown in Table 18.

Strand notation (5' to 3'): a small letter for the sugar, then the base; units joined by * are phosphorothioate-linked, units joined directly phosphodiester-linked; [ ] holds rarer units or linkages, { } end groups; capitals alone tell only the bases. d = 2'-deoxy (DNA)

For the substance 5′-TCCGTCATCGCTCCTCAGGG-3′ [ISIS 13920], in [1], the “deposition pattern in the lung” value is “taken up throughout the lung, most strongly by antigen presenting cells (APCs) and alveolar epithelium”.
With “ISIS 2302: antisense oligonucleotide targeted to ICAM-1, an inhibitor of ICAM-1 expression; SEQ ID NO: 17 (antisense GCCCAAGCTGGCATCCGTCA; listed as DNA, chemistry not given here) [reference compound]”, the “effect on B7-2 expression” value in the data set with B7-2 is recorded as “no effect”. Moreover, the IC50 (usually the concentration at which inhibition is half-maximal) with ICAM-1 (antigen presenting cells, FIG. 6, read-out: IC50, ICAM-1 levels) is approximately 250 nM. For the same substance, the “T cell proliferative response” value in the data set with CD4+ T cells was “blocked”.
Take “ISIS 10373: phosphorothioate 20-mer to human B7-2 mRNA 0011-0030; 5′-UTR; SEQ ID NO: 16 (antisense dT*dG*dC*dG*dA*dG*dC*dT*dC*dC*dC*dC*dG*dT*dA*dC*dC*dT*dC*dC)”: the “effect on B7-2 expression (specificity)” value with human B7-2 (FIG. 5) was “inhibits B7-2 expression”. Besides, the 50% inhibitory concentration (IC50) in the data set with B7-2 is approximately 250 nM. For the same substance, the “cell surface expression of B7-1” value in the data set with B7-1 is “did not affect”. Besides, the “cell surface expression of HLA-DR” value in the data set on HLA-DR is reported as “did not affect”. In addition, in the data set on ICAM-1 (dose of 1 μM), the “effect on ICAM-1 expression” value is recorded as “only a slight effect”. Moreover, the “cell surface expression of CD3” value in the data set with CD3 was “did not affect”. Besides, the “T cell proliferative response” value in the data set on CD4+ T cells is given as “blocked”. In addition, in the data set on human B7-1, the “effect on B7-1 expression (specificity)” value is “little or no effect”.
As for “ISIS 10721: scrambled # 10373; SEQ ID NO: 82 (antisense dC*dG*dA*dC*dA*dG*dC*dT*dC*dC*dT*dG*dC*dG*dC*dT*dC*dC*dT*dC) [reference compound]”, in the data set on human B7-2 (200 nM, FIG. 3), the “inhibitory activity on B7-2 cell surface expression” value is “no inhibitory activity”. For the same substance, in the data set with CD4+ T cells, the “T cell proliferative response” value is recorded as “insignificant effect”.
